{"source": "patent US6054441A", "about": "“Oxypurine nucleosides and their congeners, and acyl derivatives thereof, for improvement of hematopoiesis” (priority 1995, dated 2000)", "key": {"mouse bone marrow cells": {"test_system": "mouse bone marrow cells", "conditions": "cited from earlier work"}, "[1]": {"test_system": "hematopoietic recovery after cyclophosphamide", "experiment": "Hematopoietic recovery after cyclophosphamide (Example 64)", "assay_type": "in vivo, Balb/C mice", "conditions": "day 7", "procedure": "Fourteen female Balb/C mice weighing approximately 20 grams each received a 0.4 ml i.p. injection of either N-isobutyryldeoxyguanosine (50 mg/kg/treatment) in a Tween vehicle (0.2% Tween-80 in saline) or vehicle alone one time daily for five days following a single injection of cyclophosphamide (CP) (250 mg/kg, i.p.). On day 7 following CP administration all fourteen animals were bled and then sacrificed by cervical dislocation. Spleens were removed and weighed, and complete blood cell counts performed."}, "[2]": {"test_system": "blood cell counts after 5-FU", "experiment": "Pretreatment, recovery after 5-fluorouracil (Example 60)", "assay_type": "in vivo, Balb/C mice", "conditions": "7 days after 5-FU", "procedure": "(§1) Twelve female Balb/C mice weighing approximately 20 grams each received a 0.4 ml i.p. injection of either N-palmitoylguanine (25 mg/kg/treatment) in a Tween-DMSO vehicle (0.2% Tween-80 and 7.5% DMSO in saline) or vehicle alone one time daily for three days. On the fourth day 5-fluorouracil (5-FU; 150 mg/kg, i.p.) was administered to all twelve animals. On day 7 following 5-FU administration all twelve of these animals were bled and then sacrificed by cervical dislocation. Six untreated mice were also bled and sacrificed to provide data on normal (basal) values. Spleens were removed and weighed, and complete blood cell counts performed."}, "[3]": {"test_system": "blood cell counts after cyclophosphamide", "experiment": "Recovery after cyclophosphamide (Example 61)", "assay_type": "in vivo, Balb/C mice", "conditions": "7 days after CP", "procedure": "as §1, with “five days following a single injection of cyclophosphamide (CP) (250” for “three days. On the fourth day 5-fluorouracil (5-FU; 150”, “i.p.).” for “i.p.) was administered to all twelve animals.”, “CP” for “5-FU”"}, "[4]": {"test_system": "Interleukin-3 dependent bone marrow cells", "conditions": "10 micrograms per milliliter"}, "[5]": {"test_system": "Interleukin-3 dependent bone marrow cells", "experiment": "cells", "conditions": "Mus musculus, Bone marrow cell, read-out: % Dead Cells"}, "[6]": {"test_system": "hematopoietic recovery after cyclophosphamide", "experiment": "Hematopoietic recovery after cyclophosphamide (Example 37)", "assay_type": "in vivo, Balb/C mice", "conditions": "5 μmoles/mouse/day i.p. 6 days; day 7; vs saline", "procedure": "Twenty-four hours later and each day thereafter for a total of 6 days, mice were given a 0.4 ml i.p. injection of either physiological saline (controls), guanine (5 μmoles/mouse/day), or guanosine (5 μmoles/mouse/day). On day 7 all 10 mice in each of the three groups were bled, and then sacrificed by cervical dislocation. Spleens were removed and weighed, and complete blood cell counts performed."}, "[7]": {"test_system": "human myeloid leukemia cell line (HL-60)", "conditions": "cited from earlier work"}, "[8]": {"test_system": "hematopoietic recovery after cyclophosphamide", "experiment": "Hematopoietic recovery after cyclophosphamide, acyl chain length (Example 38)", "assay_type": "in vivo, Balb/C mice", "conditions": "day 7; guanosine 5, acyl derivatives 2.5 μmoles/mouse/day i.p.", "procedure": "Cyclophosphamide (CP) (275 mg/kg, i.p.) was administered to 70 Balb/C female mice weighing approximately 20 grams each. Twenty-four hours later and each day thereafter for a total of 6 days, mice were given a 0.4 ml i.p injection of either physiological saline (controls), Tween 80 (0.2%), guanosine (5 μmoles/mouse/day in 0.2% Tween 80), or 2.5 μmoles per mouse per day of one of the following acylated derivatives of guanosine in 0.2% Tween 80: triacetylguanosine, octanoylguanosine, lauroylguanosine, or palmitoylguanosine. On day 7 following CP administration all 10 animals from each of the 7 groups were bled, and then sacrificed by cervical dislocation. Spleens were removed and weighed, and complete blood counts performed."}, "[9]": {"conditions": "in presence of post-endotoxin serum"}}, "note": "Read-outs that look alike come from different tables or passages of the source.", "data": [{"smiles": "Nc1nc2c(ncn2[C@@H]2O[C@H](COP(=O)(O)O)[C@@H](O)[C@H]2O)c(=O)[nH]1", "note": "[5'-guanosine monophosphate]", "values": [{"measurement": "number of colonies formed", "setting": "mouse bone marrow cells; [9]", "value": "inactive"}]}, {"smiles": "CC(C)C(=O)Nc1nc2c(ncn2[C@H]2C[C@H](O)[C@@H](CO)O2)c(=O)[nH]1", "note": "[N-isobutyryldeoxyguanosine]", "values": [{"measurement": "spleen weight", "setting": "[1]; 50 mg/kg/treatment, control 72.7±2.7, p<.001, in mg (unit assumed)", "value": "116.3±8.0"}, {"measurement": "lymphocyte counts", "setting": "[1]; control 1.2±0.2, p<.02", "value": "2.1±0.2"}, {"measurement": "total neutrophil counts", "setting": "[1]; control 3.3±0.4, p<.001", "value": "6.6±0.5"}, {"measurement": "white blood cell counts", "setting": "[1]; control 4.6±0.5, p<.001", "value": "8.9±0.5"}]}, {"smiles": "CCCCCCCCCCCCCCCC(=O)Nc1nc2nc[nH]c2c(=O)[nH]1", "note": "[NPG, N^2 -Palmitoylguanine]", "values": [{"measurement": "Lymphocytes", "setting": "[2]; 25 mg/kg/treatment", "value": "4.5 ± .5 K/μl"}, {"measurement": "Platelets", "setting": "[2]; 25 mg/kg/treatment", "value": "787 ± 72", "unit": "K/μl"}, {"measurement": "WBC", "setting": "[2]; 25 mg/kg/treatment", "value": "4.6 ± .5 K/μl"}, {"measurement": "Spleen", "setting": "[2]; 25 mg/kg/treatment i.p., 3 days before", "value": "79 ± 3", "unit": "mg"}, {"measurement": "Neutrophils", "setting": "[3]; 25 mg/kg/treatment", "value": "5.5 ± .5 K/μl"}, {"measurement": "Platelets", "setting": "[3]; 25 mg/kg/treatment", "value": "774 ± 734", "unit": "K/μl"}, {"measurement": "WBC", "setting": "[3]; 25 mg/kg/treatment", "value": "7.3 ± .6 K/μl"}, {"measurement": "Spleen", "setting": "[3]; 25 mg/kg/treatment i.p., 5 days", "value": "145 ± 13", "unit": "mg"}]}, {"smiles": "Nc1nc2c(ncn2[C@@H]2O[C@@H]3COP(=O)(O)O[C@H]3[C@H]2O)c(=O)[nH]1", "note": "[cGMP, 3',5'-cyclic guanosine monophosphate]", "values": [{"measurement": "number of colonies formed", "setting": "mouse bone marrow cells; in absence of post-endotoxin serum", "value": "no effect"}, {"measurement": "number of colonies formed", "setting": "mouse bone marrow cells; [9]", "value": "increase in the number of colonies formed"}]}, {"smiles": "Nc1nc2c(ncn2[C@H]2C[C@H](O)[C@@H](CO)O2)c(=O)[nH]1", "note": "[dG, deoxyguanosine]", "values": [{"measurement": "prevention of apoptotic cell death due to IL-3 deprivation", "setting": "[4]", "value": "did nothing to prevent apoptotic cell death due to IL-3 deprivation"}, {"measurement": "cytotoxicity at 10 µg/mL", "setting": "[5]; 24 h", "value": "15.5 ± 0.5", "unit": "%"}, {"measurement": "cytotoxicity at 10 µg/mL", "setting": "[5]; 40 h", "value": "21.5 ± 3.5", "unit": "%"}, {"measurement": "cytotoxicity at 10 µg/mL", "setting": "[5]; 60 h", "value": "46.3 ± 10.3", "unit": "%"}, {"measurement": "cytotoxicity at 10 µg/mL", "setting": "[5]; 84 h", "value": "68.3 ± 6", "unit": "%"}]}, {"smiles": "Nc1nc2nc[nH]c2c(=O)[nH]1", "note": "[guanine]", "values": [{"measurement": "Neutrophils", "setting": "[6]", "value": "significantly more"}, {"measurement": "spleen weight", "setting": "[6]", "value": "significantly heavier spleens"}, {"measurement": "total white blood cells", "setting": "[6]", "value": "significantly more"}, {"measurement": "effect on induced maturation of HL-60 cells", "setting": "[7]; HL-60 with inducing agents", "value": "prevented their induced maturation into functional neutrophils"}]}, {"smiles": "CCCCCCCCCCCC(=O)OC[C@H]1O[C@@H](n2cnc3c(=O)[nH]c(N)nc32)[C@H](O)[C@@H]1O", "note": "[laurolyguanosine, Lauroylguanosine]", "values": [{"measurement": "spleen weight", "setting": "[8]", "value": "significantly larger spleens"}]}, {"smiles": "NC(=O)c1csc([C@@H]2O[C@H](CO)[C@@H](O)[C@H]2O)n1", "note": "[tiazofurin, reference compound]", "values": [{"measurement": "conversion of immature blast cells into mature granulocytes", "setting": "[7]; HL-60 in vitro", "value": "induced"}]}]}
